From patent US20170081724A1, “METHOD AND KITS FOR DETERMINING SENSITIVITY TO CANCER TREATMENT” (Dana-Farber Cancer Institute, Inc., priority 2014, published 2017)

Test system: ERCC2-deficient fibroblast cell line (GM08207) expressing GFP, WT ERCC2 or mutant ERCC2
Experiment: Cisplatin sensitivity assay (CellTiter-Glo survival, 120 hours)
Assay type: cell-based, human
Method: The expression plasmids harboring WT ERCC2, GFP (negative control), or mutant ERCC2s were expanded in E. coli TOP10 cells (Invitrogen) and purified using an anion exchange kit (Qiagen). Lentiviruses were propagated in 293T cells by cotransfection of the expression plasmid with plasmids encoding viral packaging and envelope proteins. Unless otherwise noted, all human cell lines were cultured in Dulbecco's Modified Eagle's Medium (Invitrogen) supplemented with 10% fetal bovine serum (Sigma) and 1% L-glutamine and grown at 37° C. and 5% CO2. The 293T cell supernatants containing virus were collected after 48 hours, filtered twice (0.45 μm syringe filter, Millipore), then added directly to growing cultures of an SV40-transformed pseudodiploid ERCC2-deficient fibroblast cell line derived from an XP patient of genetic complementation group D (GM08207; Coriell Institute). Polybrene® (Sigma) was added to a final concentration of 8 μg/ml to increase the efficiency of infection. […]
Cells were transferred to 96-well plates at a density of 500 cells per well. […] After 120 hours, CellTiter-Glo reagent (Promega) was added to the wells and the plates were scanned using a luminescence microplate reader (BioTek). […] IC50 concentrations were calculated using a four parameter sigmoidal model and plots were generated using Prism (GraphPad). […]

N.N.[Cl][Pt][Cl] [cisplatin]
cisplatin IC50 (WT ERCC2 complemented cell line compared with ERCC2-deficient parent cell line, P=0.0003, ANOVA): significantly higher | cisplatin IC50 (each mutant ERCC2 cell line (five mutants) compared with parent ERCC2-deficient cell line): not significantly different
